Laboratory results as given in EP0006845A1, “Pharmaceutical composition comprising a 5-aroyl-1-C1-5 alkyl-pyrrole-2-acetic acid compound and acetaminophen or acetylsalicylic acid” (McNeilab, Inc., priority 1978, dated 1980).

How the values were obtained:
adjuvant arthritic rats [1] = experiment: adjuvant arthritis test, evaluation of paw volume of the non-injected hind paw; assay type: in vivo, female Wistar, Lewis rats; settings: for inhibition at 50 mg/kg: Acetaminophen 50 mg/kg/day alone; for inhibition at 200 mg/kg: Acetaminophen 200 mg/kg/day alone; for inhibition at 800 mg/kg: Acetaminophen 800 mg/kg/day alone; for inhibition at 75 mg/kg: Aspirin 75 mg/kg/day alone; for inhibition at 150 mg/kg: Aspirin 150 mg/kg/day alone; for inhibition at 300 mg/kg: Aspirin 300 mg/kg/day alone
Excerpt: (§1) The efficacy of the novel combination of this invention in inhibiting inflammation and osteogenic degeneration is particularly seen in the adjuvant arthritis test. […] The adjuvant arthritis test, a test in which adjuvant arthritis which results both in inflammation and osteogenic changes is induced by Mycobacterium butvricum and in which the effect of the test compounds on each effect can be Determined, is considered to be .most useful for evaluation of compounds which may be suitable for the treatment of rheumatoid arthritis and other arthritic diseases. The test procedure, in which the effect on inflammation is determined by paw volume changes and the effect on osteogenic changes is determined by microscopic observation, is described by Wong et al, in J. Pharmacol.Exp.Ther. 185, 127-138, 1973, and is employed in the present determination of the potentiation of the antiarthritic properties of 5-aroyl-l-loweralkyl-pyrrole-2-acetic acid derivatives by aspirin or acetaminophen.
(§2) Briefly, in this procedure, adjuvant arthritis is induced in female Wistar, Lewis rats (Charles River Breeding Laboratories. Inc., Wiimington, Mass.) weighing 160-190 gm by a single subcutaneous injection of 0.75 mg Mycobacterium butyricum (Difco) into the left hind paw. The non-injected hind paw remains a normal size for the first seven days. Swelling begins to appear in the non-injected paw of the first rats on Day 8. Using the paw volume determination technique (a technique in which rat paws are dippedin mercury to the hairline and the volume of displacement determined by a modified Van Arman mercury displacement method as described in the aforementioned paper of Wong et al), the time progress curve of volume changes in the non-injected (contralateral) paw is followed. […] The mean onset time for 100 rats is found to be 11.6 days with a standard deviation of 1.9 days and the frequency of onset time values distributed normally between Days 8 and 19. Thus, determinations of antiarthritic activity are made in the period Day 11 to Day 28.
(§3) For determination of anti-inflammatory properties two different evaluations are made: (a) the evaluation of paw volume during the Phase II and Phase III periods and, (b) the evaluation of osteogenic (bone) degenration during the Phase IV period.
For evaluation of paw volume, adjuvant arthritic rats with early but significant signs of arthritis in the contralateral paw are selected on Day 11 and randomly assigned to the various groups of 10 animals in each group. All test -animals are dosed-daily (per os) with the test compound, preferably as sodium salt, or in saline for 17 days (Days 11 to 27 inclusive). Control animals are dosed with an equivalent volume of saline. The paw volumes of the non-injected paws are determined initially on Day 11 and again on Days 15, 18, 22, 25, and 28. The paw volumes are then compared with normal paw volumes of adjuvant arthitic rats previously determined from a reference curve relating normal paw volume to body weight. The volume of each individual rat which is greater than the normal volume is utilized in the analysis of the data. Values for drug treated animals are expressed as a percent inhibition of the paw volume change relative to the mean value for saline controls. Data is evaluated statistically and ED50 values with 95 percent confidence limits are calculated. The method for statistical analysis is described in detail in the aforementioned paper of Wong et al. The term "ED50" refers to the dose of drug required to produce 50 percent antagonism of the paw volume changes observed in the saline treated adjuvant arthritis controls. Suppression of paw volume changes reflects anti-inflammatory and antiarthritic activity of a test drug.

adjuvant arthritic rats [2] = experiment: adjuvant arthritis test, evaluation of bone degeneration (osteogenic changes) in the non-injected hind paw; assay type: in vivo, female Wistar, Lewis rats; settings: for ED50: drug alone, suppression of osteogenic changes, data from several experiments pooled, read-out: ED50 and 95 percent C.L.
Excerpt: as §1, §2, §3
For evaluation of bone degenerations, normal and adjuvant arthritic rats are sacrificed under C02, after the paw volume measurements have been completed on Day 28. The hind legs are removed above the knees and skinned and the soft tissues dissected away with care to avoid injury to bone and articular structures. The leg bones are then immersed in 2 percent potassium hydroxide solution for approximately four to five days until the remaining soft tissues becomes properly macerated and/or transparent, and the bones are fully visible. The leg bones are stained with Alizarin Red (0.01 percent in 2 percent KOH) for eight hours, and then processed through increasing concentrations of glycerol in water (20, 40, 60, 80 and 100 percent) for purposes of clearing the tissues for microscopic observation. The distal end of the tibiae, the tarsals, metatarsals, phalanges, and sesamoids are evaluated under a Stereozoom Microscope (a special type of dissecting microscope, product of Bausch and Lomb).
Osteogenic changes for each bone (in 31 bone categories) in the non-injected hind paw are graded on a scale of from 0 to 10 (increasing numerical value corresponding to increasing severity of bone degeneration). A total bone degeneration score is obtained (maximum score/paw = 310 points) and then expressed as a percent score. The mean percent score (95 percent confidence limits) for saline control groups from 26 experiments (184 animals) is found to be 53.4 (50.9-55.9). Percent score values for drug treated animals are expressed as a percent inhibition relative to the mean for the saline control group. Data is evaluated statistically and ED50 values with 95 percent confidence limits are calculated.

[3] = Rattus norvegicus, 672 h, Table IX, Day 28, read-out: Percent Inhibition ± S.E. (Day 28)
[4] = Rattus norvegicus, read-out: Percent Inhibition of Paw Volume ± S.E.
[5] = Rattus norvegicus, 672 h, Day 28, read-out: Percent Inhibition ± S.E. (Day 28)
[6] = Rattus norvegicus, 672 h, Table VIII, Day 28, read-out: Percent Inhibition ± S.E. (Day 28)

Cn1c(CC(=O)O)cc(Cl)c1C(=O)c1ccc(Cl)cc1 [4-chloro-5-p-chlorobenzoyl-1-nethyl-pyrrole-2-acetic acid]
ED50 (adjuvant arthritic rats [1]; Rattus norvegicus, 672 h, Table IX, ED50 of the pyrrole compound without acetaminophen, Day 28, read-out: ED50): 0.054 mg/kg
inhibition at 0.02 mg/kg/day (adjuvant arthritic rats [1]; Rattus norvegicus, 672 h, Table IX, pyrrole compound 0.02 mg/kg/day alone, Day 28, read-out: Percent Inhibition ± S.E. (Day 28)): 18.6 ± 11.7%
inhibition at 0.06 mg/kg/day (adjuvant arthritic rats [1]; Rattus norvegicus, 672 h, Table IX, pyrrole compound 0.06 mg/kg/day alone, Day 28, read-out: Percent Inhibition ± S.E. (Day 28)): 61.3 ± 5.3%
inhibition at 0.18 mg/kg/day (adjuvant arthritic rats [1]; Rattus norvegicus, 672 h, Table IX, pyrrole compound 0.18 mg/kg/day alone, Day 28, read-out: Percent Inhibition ± S.E. (Day 28)): 78.9 ± 8.7%

CC(=O)Nc1ccc(O)cc1 [Acetaminophen, acetaminophen]
inhibition at 50 mg/kg (adjuvant arthritic rats [2]; Rattus norvegicus, Acetaminophen 50 mg/kg/day alone, read-out: Percent Inhibition of Bone Degeneration ± S.E.): 0%
inhibition at 200 mg/kg (adjuvant arthritic rats [2]; Rattus norvegicus, Acetaminophen 200 mg/kg/day alone, read-out: Percent Inhibition of Bone Degeneration ± S.E.): 12.6 ± 6.5%
inhibition at 800 mg/kg (adjuvant arthritic rats [2]; Rattus norvegicus, Acetaminophen 800 mg/kg/day alone, read-out: Percent Inhibition of Bone Degeneration ± S.E.): 32.9 ± 3.4%
ED50 (adjuvant arthritic rats [2]; Rattus norvegicus): 1670 mg/kg
inhibition at 50 mg/kg (adjuvant arthritic rats [1]; [3]): 7.6 ± 6.1%
inhibition at 200 mg/kg (adjuvant arthritic rats [1]; [3]): 29 ± 12.8%
inhibition at 800 mg/kg (adjuvant arthritic rats [1]; [3]): 75.3 ± 3.9%
inhibition at 50 mg/kg (adjuvant arthritic rats [1]; [4]): 0%
inhibition at 200 mg/kg (adjuvant arthritic rats [1]; [4]): 27.2 ± 15.5%
inhibition at 800 mg/kg (adjuvant arthritic rats [1]; [4]): 67.8 ± 5.7%
ED50 (adjuvant arthritic rats [1]; Rattus norvegicus, po, 672 h, drug given alone per os, Day 28, read-out: ED50 Values and 95 Percent C.L.): 576 mg/kg
minimal effective dose (adjuvant arthritic rats [1]; Rattus norvegicus, given alone, statistically significant difference (p<0.05) from saline treated controls, read-out: minimum effective dose (MED)): 320 mg/kg/day
Percent Inhibition ± S.E. (Day 28) (adjuvant arthritic rats [1]; Table VII, Dose of Acetaminophen 100 alone, Day 28): 2.7 ±17.4%
Percent Inhibition ± S.E. (Day 28) (adjuvant arthritic rats [1]; Table VII, Dose of Acetaminophen 200 alone, Day 28): 6.6 ± 11.4%
Percent Inhibition ± S.E. (Day 28) (adjuvant arthritic rats [1]; Table VII, Dose of Acetaminophen 400 alone, Day 28): 31.6 ± 6.1%
dose of acetaminophen required to suppress the tolmetin ED50 by 50 percent (adjuvant arthritic rats [1]; acetaminophen given with tolmetin): 35.3 (13.4-81.3) mg/kg/day

CC(=O)Oc1ccccc1C(=O)O [Aspirin, acetylsalicylic acid]
inhibition at 25 mg/kg (adjuvant arthritic rats [2]; Rattus norvegicus, bone degeneration, Aspirin 25 mg/kg/day alone, read-out: Percent Inhibition ± S. E.): 15.2 ± 12.6%
inhibition at 75 mg/kg (adjuvant arthritic rats [2]; Rattus norvegicus, bone degeneration, Aspirin 75 mg/kg/day alone, read-out: Percent Inhibition ± S. E.): 29.5 ± 5.6%
inhibition at 100 mg/kg (adjuvant arthritic rats [2]; Rattus norvegicus, bone degeneration, Aspirin 100 mg/kg/day alone, read-out: Percent Inhibition ± S. E.): 28.3 ± 8.2%
inhibition at 150 mg/kg (adjuvant arthritic rats [2]; Rattus norvegicus, bone degeneration, Aspirin 150 mg/kg/day alone, read-out: Percent Inhibition ± S. E.): 22.9 ± 3.1%
inhibition at 300 mg/kg (adjuvant arthritic rats [2]; Rattus norvegicus, bone degeneration, Aspirin 300 mg/kg/day alone, read-out: Percent Inhibition ± S. E.): 59.9 ± 5.4%
ED50 (adjuvant arthritic rats [2]; Rattus norvegicus): 382 mg/kg
Percent Inhibition ± S. E. (adjuvant arthritic rats [2]; bone degeneration, Aspirin 25 mg/kg/day alone): 20.1 ± 5.2%
dose of Aspirin required to suppress the tolmetin ED50 by 50 percent (adjuvant arthritic rats [1]; Aspirin given in combination with tolmetin): 83.6 (60.5 - 101) mg/kg/day
inhibition at 25 mg/kg (adjuvant arthritic rats [1]; Rattus norvegicus, 672 h, Aspirin 25 mg/kg/day alone, Day 28, read-out: Percent Inhibition ± S.E. (Day 28)): 16.4 ± 11.4%
inhibition at 75 mg/kg (adjuvant arthritic rats [1]; [5]): 39.6 ± 3.6%
inhibition at 100 mg/kg (adjuvant arthritic rats [1]; Rattus norvegicus, 672 h, Aspirin 100 mg/kg/day alone, Day 28, read-out: Percent Inhibition ± S.E. (Day 28)): 28.3 ± 8.2%
inhibition at 150 mg/kg (adjuvant arthritic rats [1]; [5]): 34.2 ± 6%
inhibition at 300 mg/kg (adjuvant arthritic rats [1]; [5]): 66.2 ± 6.3%
inhibition at 75 mg/kg (adjuvant arthritic rats [1]; [6]): 4.1 ± 14.4%
inhibition at 150 mg/kg (adjuvant arthritic rats [1]; [6]): 33.2 ± 7.6%
inhibition at 300 mg/kg (adjuvant arthritic rats [1]; [6]): 28.9 ± 9.4%
ED50 (adjuvant arthritic rats [1]; Rattus norvegicus, aspirin alone, data from several similar experiments pooled, read-out: ED50 and its 95 percent C.L.): 322 mg/kg

Cc1cc(CC(=O)O)n(C)c1C(=O)c1ccc(Cl)cc1 [1,4-dimethyl-5-p-chlorobenzoyl-pyrrole-2-acetic acid]
ED50 (adjuvant arthritic rats [1]; Rattus norvegicus, 672 h, Table VII, ED50 of the pyrrole compound without acetaminophen, Day 28, read-out: ED50): 0.4 mg/kg
inhibition at 0.11 mg/kg/day (adjuvant arthritic rats [1]; Rattus norvegicus, 672 h, Table VII, pyrrole compound 0.11 mg/kg/day alone, Day 28, read-out: Percent Inhibition ± S.E. (Day 28)): 27.4 ± 10.1%
inhibition at 0.33 mg/kg/day (adjuvant arthritic rats [1]; Rattus norvegicus, 672 h, Table VII, pyrrole compound 0.33 mg/kg/day alone, Day 28, read-out: Percent Inhibition ± S.E. (Day 28)): 45 ± 6%
inhibition at 1 mg/kg/day (adjuvant arthritic rats [1]; Rattus norvegicus, 672 h, Table VII, pyrrole compound 1.0 mg/kg/day alone, Day 28, read-out: Percent Inhibition ± S.E. (Day 28)): 68 ± 7.8%
ED50 (adjuvant arthritic rats [1]; Rattus norvegicus, 672 h, Table VIII, ED50 of the pyrrole compound without Aspirin, Day 28, read-out: ED50): 0.728 mg/kg
inhibition at 0.125 mg/kg/day (adjuvant arthritic rats [1]; Rattus norvegicus, 672 h, Table VIII, pyrrole compound 0.125 mg/kg/day alone, Day 28, read-out: Percent Inhibition ± S.E. (Day 28)): 17.5 ± 7.5%
inhibition at 0.5 mg/kg/day (adjuvant arthritic rats [1]; Rattus norvegicus, 672 h, Table VIII, pyrrole compound 0.5 mg/kg/day alone, Day 28, read-out: Percent Inhibition ± S.E. (Day 28)): 43.8 ± 11.8%
inhibition at 2 mg/kg/day (adjuvant arthritic rats [1]; Rattus norvegicus, 672 h, Table VIII, pyrrole compound 2.0 mg/kg/day alone, Day 28, read-out: Percent Inhibition ± S.E. (Day 28)): 68.2 ± 5.3%
